One substance from patent publication US7214495B2, “Screening method” (Takeda Pharmaceutical Company Limited, priority 2002, dated 2007) can be followed below.

Data set [1] concerns mouse GPR40-GFP fusion protein. Description: Expression of mouse GPR40-GFP fusion protein in CHO cells after siRNA introduction (enzyme immunoassay). In kind it is cell-based. The note with it: siRNA 2.86 pmols/0.5 μl or 8.57 pmols/1.5 μl, one day. The procedure:
Mouse GPR40-GFP fusion protein-expressed CHO cells prepared by publicly known methods were plated in a 96-well plate at a density of 3×10^4/well, followed by incubation for a day. The siRNA (Dharmacon, Inc.) having various sequences, which was prepared according to the report by Elbasir et al. (Nature 411 (6836), 494–498 (2001)) using HVJ Envelope VECTOR KIT GenomONE™ (Ishihara Sangyo Kaisha, LTD.), was introduced into the cells (in a concentration of 2.86 pmols/0.5 μl or 8.57 pmols/1.5 μl), incubation followed for further one day. The expression level of mouse GPR40-GFP was detected by enzyme immunoassay as shown below. After the culture supernatant was discarded and the cells were washed with HBSS (Invitrogen), the cells were immobilized on 0.01% glutaraldehyde (Wako Pure Chemical) for 5 minutes, followed by blocking with 2% BSA-containing PBS (Takara Shuzo). Anti-GFP monoclonal antibody 3E6 (Nippon Gene) diluted to 500-fold was added to the cells. After incubation at room temperature for 2 hours, the cells were washed and HRP-labeled anti-mouse IgG antibody (ICN) diluted to 500-fold was added thereto followed by incubation at room temperature for 2 hours. After washing, TMB Microwell peroxidase substrate (Funakoshi) was added to the cells. After incubation for 30 minutes, sulfuric acid was added to stop the color-forming reaction and absorbance was measured at 450 nm.

A further data set concerns mouse GPR40 mRNA. The data set can be described thus: Mouse GPR40 mRNA expression in MIN6 after siRNA introduction. In kind it is cell-based. The note with it: 2 days after introduction; vs random sequence siRNA. The procedure: MIN6 cells were plated in a 24-well plate and incubated for a day. Based on the method of EXAMPLE 18, m40i103 or Scramble II duplex siRNA, which was a random sequence siRNA, was then introduced using HVJ Envelope VECTOR KIT GenomONE. After incubation for 2 days, the total RNA of the same cells was prepared in a manner similar to EXAMPLE 7, using Isogen (Nippon Gene K. K.), following the manual attached. Using as a primer 100 ng of random hexamer based on 1 μg of the resulting total RNA, cDNA was synthesized using SuperScriptII reverse transcriptase (Invitrogen, Inc.), which was lysed in 40 μl of TE buffer (pH 8.0). The expression levels of mouse GPR40 and mouse GAPDH mRNA were determined by the method described in EXAMPLE 4.

On to “m40i103: mouse GPR40-specific siRNA; sense strand SEQ ID NO: 34, antisense strand SEQ ID NO: 35 (sense CGCCAGUUGUGACAUUCUUNN; antisense NNGCGGUCAACACUGUAAGAA; chemistry not given here; one strand is listed 3' to 5')”, for which the “expression level of GPR40-GFP (absorbance at 450 nm)” value in data set [1] was “reduction in the expression level”. Besides, in the data set with mouse GPR40 mRNA, the “expression of GPR40 mRNA (GPR40/GAPDH) in MIN6” value is given as “decreased”.
